Source: patent US8415482B2, “Proline derivatives” (National Health Research Institutes, priority 2009, dated 2013)

What follows are compounds tested on HCV replication (assay: Inhibiting HCV replication, Ava5-EG(Δ4AB)SEAP reporter-based cell line, SEAP activity). Conditions: Hepatitis C virus, 72 h, Ava5-EG(Δ4AB)SEAP cells; 48 hours + additional 24 hours treatment; SEAP activity in culture medium; read-out: EC50 values (i.e., the concentration of a test compound at which 50% HCV replication is inhibited).
Method: The inhibitory activity of compounds of this invention against HCV replication was assessed using Ava5-EG(Δ4AB)SEAP, a reporter-based cell line, according to the methods described in Lee et al., Anal. Biochem., 316:162-70 (2003) and Lee et al., J. Virol Methods, 116:27-33 (2004). Briefly, Ava5-EG(Δ4AB)SEAP cells were cultured in a medium containing 500 μg/mL G418 (geneticin) and 10 μg/mL blasticidin in a 5% CO2 incubator. G418 and blasticidin were purchased from Invitrogen (Carlsbad, Calif.). The cells were seeded in a 96-well plate (5×10^3 cells/100 μL-well) and incubated at 37° C. for 24 hours. They were then treated with a solution of a test compound in DMSO at various concentrations. After 48 hours, the culture medium in each well was replaced with a fresh medium containing the test compound at the same concentrations to remove secreted alkaline phosphatase (SEAP) accumulated in the culture medium, if any. The cells were cultured for additional 24 hours. The culture medium was then collected and tested for SEAP activity using a Phospha-Light assay kit (Tropix, Foster, Calif., USA).
`O=C(N[C@@H](C(=O)N1CCC[C@H]1c1ncc(-c2ccc(-c3ccc(-c4cnc([C@@H]5CCCN5C(=O)[C@H](NC(=O)c5ccco5)c5ccccc5)s4)cc3)cc2)s1)c1ccccc1)c1ccco1` [Compound 76a] showed an EC50 of at most 500 nM.
`O=C(N[C@@H](C(=O)N1C[C@H](F)C[C@H]1c1ncc(-c2ccc(-c3ccc(-c4cnc([C@@H]5C[C@@H](F)CN5C(=O)[C@H](NC(=O)C5CC5)c5ccccc5)s4)cc3)cc2)s1)c1ccccc1)C1CC1` [Compound 7b-A] showed an EC50 of at most 500 nM.
`O=C(N[C@H](C(=O)N1CCC[C@H]1c1ncc(-c2ccc(-c3ccc(-c4cnc([C@@H]5CCCN5C(=O)[C@H](NC(=O)C5CCC5)c5ccccc5)s4)cc3)cc2)s1)c1ccccc1)C1CCC1` [Compound 67a] gave an EC50 of at most 500 nM.
Work on `O=C(N[C@@H](C(=O)N1CCC[C@H]1c1ncc(-c2ccc(-c3ccc(-c4cnc([C@@H]5CCCN5C(=O)[C@H](NC(=O)C5CCCCC5)c5ccccc5)s4)cc3)cc2)s1)c1ccccc1)C1CCCCC1` [Compound 70a] yielded an EC50 of at most 500 nM.
With `CC(C)(C)OC(=O)N[C@@H](C(=O)N1CCC[C@H]1c1nc(-c2ccc(-c3ccc(-c4cnc([C@@H]5CCCN5C(=O)[C@H](NC(=O)OC(C)(C)C)c5ccccc5)s4)cc3)cc2)no1)c1ccccc1` [Compound 33a] the EC50 was at most 500 nM.
`O=C(N[C@@H](C(=O)N1C[C@@H](F)C[C@H]1c1ncc(-c2ccc(-c3ccc(-c4cnc([C@@H]5C[C@H](F)CN5C(=O)[C@H](NC(=O)N5CCOCC5)c5ccccc5)s4)cc3)cc2)s1)c1ccccc1)N1CCOCC1` [Compound 7c-B] gave an EC50 of at most 500 nM.
Work on `O=C(N[C@@H](C(=O)N1C[C@@H](F)C[C@H]1c1ncc(-c2ccc(-c3ccc(-c4cnc([C@@H]5C[C@H](F)CN5C(=O)[C@H](NC(=O)C5CC5)c5ccccc5)s4)cc3)cc2)s1)c1ccccc1)C1CC1` [Compound 7c-A] yielded an EC50 of at most 500 nM.
`CC(C)(C)OC(=O)N[C@@H](C(=O)N1CCC[C@H]1c1ncc(-c2ccc(-c3ccc(-c4csc([C@@H]5CCCN5C(=O)[C@H](NC(=O)OC(C)(C)C)c5ccccc5)n4)cc3)cc2)[nH]1)c1ccccc1` [Compound 37a] was tested, and the EC50 was at most 500 nM.
With `O=C(N[C@@H](C(=O)N1CCC[C@H]1c1nc(-c2ccc(-c3ccc(-c4csc([C@@H]5CCCN5C(=O)[C@H](NC(=O)C5CC5)c5ccccc5)n4)cc3)cc2)no1)c1ccccc1)C1CC1` [Compound 30a] the EC50 was at most 500 nM.
`CC(C)(C)OC(=O)N[C@@H](C(=O)N1CCC[C@H]1c1nc(-c2ccc(-c3ccc(-c4csc([C@@H]5CCCN5C(=O)[C@H](NC(=O)OC(C)(C)C)c5ccccc5)n4)cc3)cc2)no1)c1ccccc1` [Compound 29a] gave an EC50 of at most 500 nM.
`O=C(N[C@@H](C(=O)N1CCC[C@H]1c1nc(-c2ccc(-c3ccc(-c4cnc([C@@H]5CCCN5C(=O)[C@H](NC(=O)C5CC5)c5ccccc5)s4)cc3)cc2)cs1)c1ccccc1)C1CC1` [Compound 46a] gave an EC50 of at most 500 nM.
For `O=C(N[C@@H](C(=O)N1CCC[C@H]1c1ncc(-c2ccc(-c3ccc(-c4cnc([C@@H]5CCCN5C(=O)[C@H](NC(=O)C5CC5)c5ccccc5)s4)cc3)cc2)s1)c1ccccc1)C1CC1` [Compound 7a-A, N,N′-(1R,1′R)-2,2′-((2S,2′S)-2,2′-(5,5′-(biphenyl-4,4′-diyl)bis(thiazole-5,2-diyl))bis(pyrrolidine-2,1-diyl))bis(2-oxo-1-phenylethane-2,1-diyl)dicyclopropanecarboxamide], the EC50 was at most 500 nM.
Work on `O=C(N[C@@H](C(=O)N1CCC[C@H]1c1ncc(-c2ccc(-c3ccc(-c4cnc([C@@H]5CCCN5C(=O)[C@H](NC(=O)C5CC5)c5ccccc5)s4)cc3)cc2)[nH]1)c1ccccc1)C1CC1` [Compound 42a, N—((R)-2-((S)-2-(5-(4′-(2-((S)-1-((R)-2-(cyclopropanecarboxamido)-2-phenylacetyl)pyrrolidin-2-yl)-1H-imidazol-4-yl)biphenyl-4-yl)thiazol-2-yl)pyrrolidin-1-yl)-2-oxo-1-phenyl-ethyl)cyclopropanecarboxamide] yielded an EC50 of at most 500 nM.
`CC(C)(C)OC(=O)N[C@@H](C(=O)N1CCC[C@H]1c1ncc(-c2ccc(-c3ccc(-c4cnc([C@@H]5CCCN5C(=O)[C@H](NC(=O)OC(C)(C)C)c5ccccc5)s4)cc3)cc2)s1)c1ccccc1` [Compound 6a, di-tert-butyl (1R,1′R)-2,2′-((2S,2′S)-2,2′-(5,5′-(biphenyl-4,4′-diyl)bis(thiazole-5,2-diyl))bis(pyrro-lidine-2,1-diyl))bis(2-oxo-1-phenylethane-2,1-diyl)dicarbamate] showed an EC50 of at most 500 nM.
`O=C(N[C@@H](C(=O)N1CCC[C@H]1c1ncc(-c2ccc(-c3ccc(-c4csc([C@@H]5CCCN5C(=O)[C@H](NC(=O)C5CC5)c5ccccc5)n4)cc3)cc2)[nH]1)c1ccccc1)C1CC1` [Compound 38a] was tested, and the EC50 was at most 500 nM.
For `CCCCCC(=O)N[C@@H](C(=O)N1CCC[C@H]1c1ncc(-c2ccc(-c3ccc(-c4cnc([C@@H]5CCCN5C(=O)[C@H](NC(=O)CCCCC)c5ccccc5)s4)cc3)cc2)s1)c1ccccc1` [Compound 58a], the EC50 was at most 500 nM.
`CC(C)(C)OC(=O)N[C@@H](C(=O)N1CCC[C@H]1c1nc(-c2ccc(-c3ccc(-c4cnc([C@@H]5CCCN5C(=O)[C@H](NC(=O)OC(C)(C)C)c5ccccc5)s4)cc3)cc2)cs1)c1ccccc1` [Compound 45a] was tested, and the EC50 was at most 500 nM.
With `CC(C)(C)OC(=O)N[C@@H](C(=O)N1CCC[C@H]1c1ncc(-c2ccc(-c3ccc(-c4cnc([C@@H]5CCCN5C(=O)[C@H](NC(=O)OC(C)(C)C)c5ccccc5)s4)cc3)cc2)[nH]1)c1ccccc1` [Compound 41a] the EC50 was at most 500 nM.
In the case of `O=C(Cc1ccccc1)N[C@@H](C(=O)N1CCC[C@H]1c1ncc(-c2ccc(-c3ccc(-c4cnc([C@@H]5CCCN5C(=O)[C@H](NC(=O)Cc5ccccc5)c5ccccc5)s4)cc3)cc2)s1)c1ccccc1` [Compound 74a], the EC50 is reported as at most 500 nM.
For `CC(C)C(=O)N[C@H](C(=O)N1CCC[C@H]1c1ncc(-c2ccc(-c3ccc(-c4cnc([C@@H]5CCCN5C(=O)[C@H](NC(=O)C(C)C)c5ccccc5)s4)cc3)cc2)s1)c1ccccc1` [Compound 61a], the EC50 was at most 500 nM.
With `O=C(N[C@@H](C(=O)N1C[C@H](F)C[C@H]1c1ncc(-c2ccc(-c3ccc(-c4cnc([C@@H]5C[C@@H](F)CN5C(=O)[C@H](NC(=O)N5CCOCC5)c5ccccc5)s4)cc3)cc2)s1)c1ccccc1)N1CCOCC1` [Compound 7b-B] the EC50 was at most 500 nM.
With `O=C(N[C@@H](C(=O)N1CCC[C@H]1c1ncc(-c2ccc(-c3ccc(-c4cnc([C@@H]5CCCN5C(=O)[C@H](NC(=O)N5CCOCC5)c5ccccc5)s4)cc3)cc2)s1)c1ccccc1)N1CCOCC1` [Compound 7a-B] the EC50 was at most 500 nM.
For `O=C(N[C@@H](C(=O)N1CCC[C@H]1c1nc(-c2ccc(-c3ccc(-c4cnc([C@@H]5CCCN5C(=O)[C@H](NC(=O)C5CC5)c5ccccc5)s4)cc3)cc2)no1)c1ccccc1)C1CC1` [Compound 34a], the EC50 was at most 500 nM.
For `CC(=O)N[C@H](C(=O)N1CCC[C@H]1c1ncc(-c2ccc(-c3ccc(-c4cnc([C@@H]5CCCN5C(=O)[C@H](NC(C)=O)c5ccccc5)s4)cc3)cc2)s1)c1ccccc1` [Compound 51a], the EC50 was at most 500 nM.
`O=C(N[C@@H](C(=O)N1CCC[C@H]1c1ncc(-c2ccc(-c3ccc(-c4cnc([C@@H]5CCCN5C(=O)[C@H](NC(=O)c5ccncc5)c5ccccc5)s4)cc3)cc2)s1)c1ccccc1)c1ccncc1` [Compound 84a] showed an EC50 of at most 500 nM.
For `O=C(N[C@@H](C(=O)N1CCC[C@H]1c1nc(-c2ccc(-c3ccc(-c4noc([C@@H]5CCCN5C(=O)[C@H](NC(=O)C5CC5)c5ccccc5)n4)cc3)cc2)c[nH]1)c1ccccc1)C1CC1` [Compound 26a], the EC50 was at most 500 nM.
`CC(C)(C)OC(=O)N[C@@H](C(=O)N1CCC[C@H]1c1nc(-c2ccc(-c3ccc(-c4noc([C@@H]5CCCN5C(=O)[C@H](NC(=O)OC(C)(C)C)c5ccccc5)n4)cc3)cc2)c[nH]1)c1ccccc1` [Compound 25a] gave an EC50 of at most 500 nM.
